Measured values from patent US20240352533A1, “Monocarboxylic Acid Transporter 4 as a Biomarker for Hypoxia Driven Tumor Growth and Treatment” (NantBio, Inc., priority 2023, published 2024).

Tested on: Ishikawa cells
Assay: Tumorsphere growth with and without Mct-4 overexpression
Type: cell-based
Details: 72 hr
Method: After 18 hr, 10× drug was added, and after 72 hr, plates were imaged.

Cc1cc(-c2nc(-c3ccc(OC(F)(F)F)cc3)no2)nn1Cc1ccnc(N2CCN(C3CC3)CC2)c1 [Bay87-2243]
tumorsphere growth (Ishikawa cells, 384-well round bottom): tumorsphere growth inhibition
tumorsphere growth inhibition under Mct-4 overexpression (Mct-4 overexpressing Ishikawa cells): Mct-4 overexpression reverses tumorsphere growth inhibition
